# Results: BindingDB's records for patent WO2022109580 (JANSSEN PHARMACEUTICA NV, 2022)
# Target: T1, Non-receptor tyrosine-protein kinase TYK2 [556-871] (Homo sapiens, UniProt P29597)
# T1 construct: 556-871
# Experiment: Probe Displacement Assay
# Procedure: The probe displacement assay is conducted as follows: In a 384-well plate, test compound along with recombinantly expressed His-tagged protein corresponding to amino acids 556-871 of human TYK2 (sequence shown below) at 5 nM, 33 nM probe (BB, preparation described below) and 0.33 mg/mL Yttrium oxide (YOx) His-capture SPA beads (PerkinElmer, RPNQ0276) in IX PBS containing 10 mM MgCl2, 0.1 mg/mL BSA, 0.1 mM TCEP, 0.005% Tween-20, and 1% DMSO (final concentration) were incubated for 10 hours at room temperature. The amount of radiolabeled probe bound to TYK2 was then quantified using a ViewLux Microplate Imager, and the fraction bound by the test compound calculated by comparison to wells containing scale references for 0% and 100% probe displacement. The IC50 value is defined as the concentration of test compound required to inhibit radiolabeled probe binding by 50%.
# T1 sequence (P29597 556-871): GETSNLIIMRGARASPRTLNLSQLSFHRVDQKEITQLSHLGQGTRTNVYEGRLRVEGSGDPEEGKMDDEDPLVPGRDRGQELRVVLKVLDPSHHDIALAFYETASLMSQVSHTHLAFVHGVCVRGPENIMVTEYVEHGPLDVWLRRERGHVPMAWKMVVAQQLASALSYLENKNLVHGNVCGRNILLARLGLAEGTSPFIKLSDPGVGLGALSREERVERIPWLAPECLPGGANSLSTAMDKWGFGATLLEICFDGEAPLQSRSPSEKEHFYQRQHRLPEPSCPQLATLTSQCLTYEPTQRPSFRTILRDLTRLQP
row,SMILES,IC50
1,"CO[C@@]1(c2cc(OCC3COC3)cc(-n3nc(C)c4cnc(NC(N)=O)cc43)n2)CCOC1 [WO2022109580, Example 13]",2 nM
2,"CO[C@]1(c2cc(OC[C@@H](C)O)cc(-n3nc(C)c4cnc(NC(N)=O)cc43)n2)CCOC1 [WO2022109580, Example 12]",6 nM
3,"CO[C@]1(c2cc(C)cc(-n3nc(C)c4cnc(NC(N)=O)cc43)n2)CCOC1 [WO2022109580, Example 6]",8 nM
4,"CO[C@]1(c2cc(C)cc(-c3cc(-c4cnn(C)c4)n4cnc(NC(N)=O)cc34)n2)CCOC1 [WO2022109580, Example 24]",42 nM
5,"CO[C@]1(c2cc(OCC3COC3)cc(-n3cc(C)c4cnc(NC(N)=O)cc43)n2)CCOC1 [WO2022109580, Example 20]",11 nM
6,"COCCOc1cc(-n2nc(C)c3cnc(NC(N)=O)cc32)nc([C@]2(OC)CCOC2)c1 [WO2022109580, Example 9]",2 nM
7,"CO[C@@]1(c2cc(C)cc(-n3cc(C)c4cnc(NC(N)=O)cc43)n2)CCOC1 [WO2022109580, Example 17]",4 nM
8,"COCCOc1cc(-n2nc(C)c3cnc(NC(N)=O)cc32)nc([C@@]2(OC)CCOC2)c1 [WO2022109580, Example 10]",6 nM
9,"CO[C@@]1(c2cc(C)cc(-n3nc(-c4cnn(C)c4)c4cnc(NC(N)=O)cc43)n2)CCOC1 [WO2022109580, Example 1]",2 nM
10,"CO[C@@]1(c2cc(C)cc(-n3nc(C)c4cnc(NC(N)=O)cc43)n2)CCOC1 [WO2022109580, Example 5]",3 nM
11,"CO[C@]1(c2cc(OCC3CS(=O)(=O)C3)cc(-n3nc(C)c4cnc(NC(N)=O)cc43)n2)CCOC1 [WO2022109580, Example 16]",7 nM
12,"CO[C@]1(c2cc(C)cc(-n3cc(C)c4cnc(NC(N)=O)cc43)n2)CCOC1 [WO2022109580, Example 18]",8 nM
13,"CO[C@@]1(c2cc(C)cc(N3C=C(c4cnn(C)c4)N4C=NC(NC(N)=O)=CC43)n2)CCOC1 (stereo partly specified) [WO2022109580, Example 23]",5 nM
14,"CO[C@]1(c2cc(OCC3CS(=O)(=O)C3)cc(-n3cc(C)c4cnc(NC(N)=O)cc43)n2)CCOC1 [WO2022109580, Example 22]",14 nM
15,"CO[C@]1(c2cc(OCC3COC3)cc(-n3nc(C)c4cnc(NC(N)=O)cc43)n2)CCOC1 [WO2022109580, Example 14]",4 nM
16,"CO[C@@]1(c2cc(OC[C@@H](C)O)cc(-n3nc(C)c4cnc(NC(N)=O)cc43)n2)CCOC1 [WO2022109580, Example 11]",2 nM
17,"CO[C@@]1(c2cc(C)cc(-n3nc(-c4cnoc4)c4cnc(NC(N)=O)cc43)n2)CCOC1 [WO2022109580, Example 3]",1 nM
18,"CO[C@@]1(c2cc(OCC3COC3)cc(-n3cc(C)c4cnc(NC(N)=O)cc43)n2)CCOC1 [WO2022109580, Example 19]",2 nM
19,"CO[C@]1(c2cc(C)cc(-n3nc(-c4cnn(C)c4)c4cnc(NC(N)=O)cc43)n2)CCOC1 [WO2022109580, Example 2]",4 nM
20,"CO[C@]1(c2cc(C)cc(-n3nc(-c4cnoc4)c4cnc(NC(N)=O)cc43)n2)CCOC1 [WO2022109580, Example 4]",2 nM
21,"CO[C@]1(c2cc(C)cc(-c3cc(C)n4cnc(NC(N)=O)cc34)n2)CCOC1 [WO2022109580, Example 25]",2 nM
